# Where two headings read alike, the source gives them in different places.
# Assays:
# [1] = biological target: His-tagged KRAS G12D protein (Homo sapiens, UniProt P01116, G12D); assay: KRAS G12D TR-FRET Assay; format: binding
# Experimental: KRAS G12D TR-FRET Assay Compounds of interest were prepared in a dose-response titration in DMSO, and 80 nL were added via Labcyte Echo to each well of a 384-well plate (Perkin Elmer 6008280). The His-tagged KRAS G12D protein (Amgen) was diluted to 20 nM in Assay Buffer (20 mM HEPES, pH 7.4, 10 mM MgCl2, 50 mM NaCl, 0.1% BSA, 0.01% Tween-20, 10 μM GDP) and 2 uL was added to the appropriate wells of the 384-well plate. The plate was incubated for 30 minutes at room temperature. Biotinylated KRPep-2d substrate (Amgen) was diluted to 20 nM in Assay Buffer and 2 μL was added to all wells and incubated for 1 hour at room temperature. Detection Reagent (0.4 nM LANCE Eu-W1024 Anti-6×-His (Perkin Elmer AD0401), 5 nM streptavidin-d2 (Cisbio 610SADLA)) was prepared in Assay Buffer, then 4 μL was added to the plate and incubated for 1 hour at room temperature. Plates were read using PerkinElmer EnVision (ex: 320 nm, em1: 665 nm, em2: 615 nm) and em1/em2 data was used to generate curve fits using a 4-parameter logistic model to calculate IC50 values.
# [2] = biological target: GDP-bound KRAS protein (aa 1-169), containing both G12D and C118A amino acid substitutions (Homo sapiens, UniProt P01116, C118A/G12D); assay: KRAS G12D Coupled Nucleotide Exchange Assay; format: biochemical
# Experimental: KRAS G12D Coupled Nucleotide Exchange Assay
# Following compound pre-incubation, purified SOS protein (aa 564-1049) and GTP (Roche 10106399001) were added to the assay wells and incubated for an additional 30 min. […] The assay plates were then read on a PerkinElmer EnVision Multilabel Reader, using AlphaScreen® technology, and data were analyzed using a 4-parameter logistic model to calculate IC50 values.
# [3] = system: Phosphorylation of ERK1/2 in AsPC-1 cells; assay: Phospho-ERK1/2 MSD Assay; format: cell-based
# Experimental: AsPC-1 (ATCC® CRL-1682™) cells were cultured in RPMI 1640 Medium (ThermoFisher Scientific 11875093) containing 10% fetal bovine serum (ThermoFisher Scientific 16000044) and Ix penicillin-streptomycin-glutamine (ThermoFisher Scientific 10378016). Sixteen hours prior to compound treatment, AsPC-1 cells were seeded in 96-well cell culture plates at a density of 25,000 cells/well and incubated at 37° C., 5% CO2. A compound dose-response titration was diluted in growth media, added to appropriate wells of a cell culture plate, and then incubated at 37° C., 5% CO2 for 2 h. Following compound treatment, cells were washed with ice-cold Dulbecco's phosphate-buffered saline, no Ca^2+ or Mg^2+ (ThermoFisher Scientific 14190144), and then lysed in RIPA buffer (50 mM Tris-HCl pH 7.5, 1% Igepal, 0.5% sodium deoxycholate, 150 mM NaCl, and 0.5% sodium dodecyl sulfate) containing protease inhibitors (Roche 4693132001) and phosphatase inhibitors (Roche 4906837001). Phosphorylation of ERK1/2 in compound-treated lysates was assayed using Phospho-ERK1/2 Whole Cell Lysate kits (Meso Scale Discovery K151DWD) according to the manufacturer's protocol. Assay plates were read on a Meso Scale Discovery Sector Imager 6000, and data were analyzed using a 4-parameter logistic model to calculate IC50 values.
# [4] = Homo sapiens, ASPC1, 2 h, read-out: 2 h p-ERK (AsPC-1 cells), IC50, AsPC-1 cells, 2 h compound treatment
# GDP-bound KRAS protein (aa 1-169), containing both G12D and C118A amino acid substitutions, sequence (P01116 1-169 isoform P01116-2 G12D/C118A): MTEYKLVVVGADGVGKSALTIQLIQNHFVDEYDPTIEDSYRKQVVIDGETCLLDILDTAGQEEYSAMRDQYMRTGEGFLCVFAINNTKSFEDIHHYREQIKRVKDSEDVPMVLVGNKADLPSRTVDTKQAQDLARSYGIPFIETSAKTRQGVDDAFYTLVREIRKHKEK
# His-tagged KRAS G12D protein, sequence (P01116 1-188 isoform P01116-2 G12D): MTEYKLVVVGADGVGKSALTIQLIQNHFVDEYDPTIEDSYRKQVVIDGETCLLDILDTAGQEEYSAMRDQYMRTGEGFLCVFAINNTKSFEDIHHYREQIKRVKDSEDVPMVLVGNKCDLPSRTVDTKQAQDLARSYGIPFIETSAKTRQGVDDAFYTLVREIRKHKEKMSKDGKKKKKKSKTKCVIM
SMILES,IC50 [1] [nM],IC50 [2] [nM],"IC50 [3, 4] [nM]","IC50 ([3]; Homo sapiens, ASPC1, read-out: 2 h p-ERK (AsPC-1 cells), IC50, AsPC-1 cells, 2 h compound treatment) [nM]","IC50 ([3]; read-out: 2 h p-ERK (AsPC-1 cells), IC50, AsPC-1 cells, 2 h compound treatment) [nM]"
"CCc1c(F)ccc2cc(O)cc(-c3ccc4c(N5CCC[C@@](C)(O)C5)nc(OC[C@@]56CCCN5C[C@H](F)C6)nc4c3F)c12 [Example 1, (R)-1-(7-(8-Ethyl-7-fluoro-3-hydroxynaphthalen-1-yl)-8-fluoro-2-(((2R,7aS)-2-fluorotetrahydro-1H-pyrrolizin-7a(5H)-yl)methoxy)quinazolin-4-yl)-3-methylpiperidin-3-ol]",2,3,48,–,–
"C#Cc1c(F)ccc2cc(N)cc(-c3c(F)cc4c(N5CCOCC(C)(O)C5)nc(OC[C@@]56CCCN5C[C@H](F)C6)nc4c3F)c12 (stereo partly drawn) [Example 70, 4-(7-(3-Amino-8-ethynyl-7-fluoronaphthalen-1-yl)-6,8-difluoro-2-(((2R,7aS)-2-fluorotetrahydro-1H-pyrrolizin-7a(5H)-yl)methoxy)quinazolin-4-yl)-6-methyl-1,4-oxazepan-6-ol]",19,4,185,–,–
"C/C=C\c1c(C)cc2[nH]ncc2c1-c1c(F)cc2c(N3CCOC[C@@](C)(O)C3)nc(OC[C@@]34CCCN3C[C@H](F)C4)nc2c1F (single isomer, unassigned) [Example 104]",2,1,30,–,–
"CCc1c(F)ccc2cc(O)cc(-c3c(F)cc4c(N5CCC[C@]6(CNC(=O)O6)C5)nc(OC[C@@H]5C[C@@H](F)CN5C)nc4c3F)c12 (single isomer, unassigned) [Example 80]",4,2,7,–,–
"Cc1cc2[nH]ncc2c(-c2ccc3c(N4CCC[C@](O)(CF)C4)nc(OC[C@@]45CCCN4C[C@H](F)C5)nc3c2F)c1[C@H]1C[C@H]1C (atropisomer, axis not shown; (aS)) [Example 118, (R)-1-((S)-8-Fluoro-2-(((2R,7aS)-2-fluorotetrahydro-1H-pyrrolizin-7a(5H)-yl)methoxy)-7-(6-methyl-5-((1S,2R)-2-methylcyclopropyl)-1H-indazol-4-yl)quinazolin-4-yl)-3-(fluoromethyl)piperidin-3-ol]",5,4,126,–,–
"C/C=C\c1c(Cl)cc2[nH]ncc2c1-c1c(F)cc2c(N3CCC[C@@](C)(O)C3)nc(OC[C@@]34CCCN3C[C@H](F)C4)nc2c1F [Example 119, (3R)-1-(7-(6-Chloro-5-((Z)-prop-1-en-1-yl)-1H-indazol-4-yl)-6,8-difluoro-2-(((2R,7aS)-2-fluorotetrahydro-1H-pyrrolizin-7a(5H)-yl)methoxy)quinazolin-4-yl)-3-methylpiperidin-3-ol]",16,11,–,111,–
"CCc1c(F)ccc2cc(N)cc(-c3c(F)cc4c(N5CCOCC(C)(O)C5)nc(OC[C@@]56CCCN5C[C@H](F)C6)nc4c3F)c12 (single isomer, unassigned) [Example 71]",111,14,–,–,1400
"Cc1cc2[nH]ncc2c(-c2ccc3c(N4CCC[C@@](C)(O)C4)nc(OC[C@@]45CCCN4C[C@H](F)C5)nc3c2F)c1[C@H]1C[C@H]1C (single isomer, unassigned) [Example 107]",4,3,166,–,–
"CCc1c(F)ccc2cccc(-c3ccc4c(N5CCCC6(CNC(=O)O6)C5)nc(OC[C@@]56CCCN5C[C@H](F)C6)nc4c3F)c12 (stereo partly drawn) [Example 85, 7-(7-(8-Ethyl-7-fluoronaphthalen-1-yl)-8-fluoro-2-(((2R,7aS)-2-fluorotetrahydro-1H-pyrrolizin-7a(5H)-yl)methoxy)quinazolin-4-yl)-1-oxa-3,7-diazaspiro[4.5]decan-2-one]",7,7,85,–,–
"C/C=C\c1c(Cl)cc2[nH]ncc2c1-c1c(F)cc2c(N3CCC[C@]4(CCO4)C3)nc(OC[C@@]34CCCN3C[C@H](F)C4)nc2c1F (single isomer, unassigned) [Example 113]",3,3,41,–,–
"C/C=C\c1c(Cl)cc2[nH]ncc2c1-c1c(F)cc2c(N3CCC[C@@](C)(O)C3)nc(OC[C@@]34CCCN3C[C@H](F)C4)nc2c1F (single isomer, unassigned) [Example 120]",4,3,35,–,–
"CCc1c(F)ccc2cc(O)cc(-c3ccc4c(N5CCC[C@@]6(CNC(=O)O6)C5)nc(OC[C@@]56CCCN5C[C@H](F)C6)nc4c3F)c12 (single isomer, unassigned) [Example 89]",7,5,14,–,–
"C[C@@]1(O)CCCN(c2nc(OC[C@@]34CCCN3C[C@H](F)C4)nc3c(F)c(-c4cc(O)cc(Cl)c4C4CC4)c(F)cc23)C1 [Example 6, (3R)-1-(7-(3-Chloro-2-cyclopropyl-5-hydroxyphenyl)-6,8-difluoro-2-(((2R,7aS)-2-fluorotetrahydro-1H-pyrrolizin-7a(5H)-yl)methoxy)quinazolin-4-yl)-3-methylpiperidin-3-ol]",5,4,123,–,–
"C/C=C\c1c(Cl)cc2[nH]ncc2c1-c1c(F)cc2c(N3CCC[C@](O)(CF)C3)nc(OC[C@@]34CCCN3C[C@H](F)C4)nc2c1F (single isomer, unassigned) [Example 101]",5,3,39,–,–
"Oc1cc(-c2c(F)cc3c(N4CCC[C@]5(CCO5)C4)nc(OC[C@@]45CCCN4C[C@H](F)C5)nc3c2F)c2c(F)c(F)ccc2c1 [Example 79, 4-(6,8-Difluoro-2-(((2R,7aS)-2-fluorotetrahydro-1H-pyrrolizin-7a(5H)-yl)methoxy)-4-((S)-1-oxa-6-azaspiro[3.5]nonan-6-yl)quinazolin-7-yl)-5,6-difluoronaphthalen-2-ol]",9,5,33,–,–
"CC1CCCc2cc(O)cc(-c3ccc4c(N5CCC[C@@](C)(O)C5)nc(OC[C@@]56CCCN5C[C@H](F)C6)nc4c3F)c21 (stereo partly drawn) [Example 96, (3R)-1-(8-Fluoro-2-(((2R,7aS)-2-fluorotetrahydro-1H-pyrrolizin-7a(5H)-yl)methoxy)-7-(3-hydroxy-8-methyl-5,6,7,8-tetrahydronaphthalen-1-yl)quinazolin-4-yl)-3-methylpiperidin-3-ol]",10,6,87,–,–
"Cc1cc2[nH]ncc2c(-c2c(F)cc3c(N4CCC[C@](O)(CF)C4)nc(OC[C@@]45CCCN4C[C@H](F)C5)nc3c2F)c1C1CC1 (single isomer, unassigned) [Example 100]",4,3,90,–,–
"CCc1c(F)ccc2cc(O)cc(-c3ccc4c(N5CCC[C@]6(C5)C[C@@H](O)C6)nc(OC[C@@]56CCCN5C[C@H](F)C6)nc4c3F)c12 [Example 87, (2S,4s)-6-(7-(8-Ethyl-7-fluoro-3-hydroxynaphthalen-1-yl)-6,8-difluoro-2-(((2R,7a.S)-2-fluorotetrahydro-1H-pyrrolizin-7a(5H)-yl)methoxy)quinazolin-4-yl)-6-azaspiro[3.5]nonan-2-ol]",5,3,55,–,–
"CCc1c(F)ccc2cc(O)cc(-c3ccc4c(N5C[C@H](NC(=O)OC)CC(F)(F)C5)nc(OC[C@@]56CCCN5C[C@H](F)C6)nc4c3F)c12 [Example 5, Methyl ((R)-1-(7-(8-ethyl-7-fluoro-3-hydroxynaphthalen-1-yl)-8-fluoro-2-(((2R,7aS)-2-fluorotetrahydro-1H-pyrrolizin-7a(5H)-yl)methoxy)quinazolin-4-yl)-5,5-difluoropiperidin-3-yl)carbamate]",3,3,303,–,–
